Source: patent US20240190862A1 (AMGEN INC., priority 2019, published 2024)
Read-outs that look alike come from different tables or passages of the source.

What was measured:
[1] = target: GDP-bound KRAS protein (aa 1-169) G12D/C118A (Homo sapiens (Human), UniProt P01116, C118A/G12D); experiment: Coupled Nucleotide Exchange Assay (KRAS G12D); format: biochemical; details: 20 h compound pre-incubation; read-out: GDP KRAS G12D 20 h Coupled Exchange IC50 IP
Description: (§1) Coupled Nucleotide Exchange Assay: Purified GDP-bound KRAS protein (aa 1-169), containing either G12C or G12D, as well as C118A amino acid substitutions and an N-terminal His-tag, was pre-incubated in assay buffer (25 mM HEPES pH 7.4, 10 mM MgCl2, and 0.01% Triton X-100) with a compound dose-response titration for either 5 min or 20 hours (see Table 15). Following compound pre-incubation, purified SOS protein (aa 564-1049) and GTP (Roche 10106399001) were added to the assay wells and incubated for an additional 30 min. To determine the extent of inhibition of SOS-mediated nucleotide exchange, purified GST-tagged cRAF (aa 1-149), nickel chelate AlphaLISA acceptor beads (PerkinElmer AL108R), and AlphaScreen glutathione donor beads (PerkinElmer 6765302) were added to the assay wells and incubated for 10 minutes. The assay plates were then read on a PerkinElmer EnVision Multilabel Reader, using AlphaScreen® technology, and data were analyzed using a 4-parameter logistic model to calculate IC50 values.

GDP-KRAS G12D = GDP-KRAS G12D (Homo sapiens, UniProt P01116, C118A/G12D); experiment: GDP-KRAS G12D RF-MS Assay; format: binding; details: 100 μM inhibitor, 20 h incubation, 2 uM KRAS G12D
Description: GDP-KRAS G12D RF-MS Assay: MS assays were performed in the following buffer: 25 mM HEPES pH 7.4, 20 mM MgCl2, 10 mM NaCl, 3% DMSO, 0.0005% CHAPS with 100 μM GDP made fresh and added to the assay buffer. The final concentration of KRAS G12D was 2 uM. Assay incubation times were 20 h and the inhibitor concentration was 100 μM. Greiner polypropylene clear V-bottom plates were used for the mass spectrometry assays. Typically, the reaction was initiated by addition of KRAS G12D to a well containing inhibitor followed by Rapidfire MS analysis. Relative % Bound values at the various incubation times were used to estimate a kobs value at 100 uM inhibitor.
RapidFire Sample Liquid handling System: The RapidFire liquid handling unit used was the RF 360 model. Solvents were delivered by Agilent 1260 Infinity pumps. The instrument control software was the Agilent RapidFire High Throughput MS-system software (v4.0.12333.14274). A single C4 Type A (Agilent technologies, G9203) SPE-cartridge was used for these experiments. A volume of 10 μL (sample loop determined) was removed from each well of a 384-well plate by using an aspiration time of 300 ms. The sample load/wash time was 6000 ms at a flow rate of 1.25 mL/min (H2O, 0.1% v/v formic acid, 0.05% v/v trifluoroacetic acid); elution time was 7000 ms (acetonitrile, 0.1% v/v formic acid, 0.05% v/v trifluoroacetic acid); re-equilibration time was 700 ms at a flow rate of 1.25 mL/min (H2O, 0.1% v/v formic acid, 0.05% v/v trifluoroacetic acid).
Mass Spectrometry: Mass spectrometric data was acquired on an Agilent 6530 quadrupole time-of-flight (ToF) MS system, operated with a dual Agilent Jet Spray (AJS) ion source, in positive ionization mode. The instrument parameters were as follows: gas temperature 350° C.; drying gas 5 L/min; nebulizer 60 psi; sheath gas 350° C.; sheath gas flow 11 L/min; capillary 3.5 kV (0.037 μA); nozzle 1.75 kV; fragmentor 200 V; skimmer 75 V; octapole RF 800 V peak-to-peak. Data was acquired at the rate of 5 spectra/s. The mass scale was calibrated using the Agilent positive ion tune mix, over the m/z range 300-3200. The instrument control software was Agilent MassHunter Workstation Data Acquisition (vB.05.01).
Mass Spectrometry Data Processing and Informatics: All data processing was performed using a HP Z620, 64-bit, 12-processor, Windows 7 PC, using a combination of Agilent MassHunter Qualitative Analysis (B.05.00) Agilent RapidFire control software (v4.0.12333.14070) and the Agilent DA Reprocessor Offline Utilities B.05.00, Build 162. The SPE-MS data acquired from the RapidFire-MS system is typically a single SPE-MS data file composed of multiple injection events. For effective charge state extraction, SPE-peak integration and subsequent MS-spectral deconvolution, the single SPE-MS data file is split into single injection events. This is typically performed off-line and achieved through the RapidFire User Interface software, using the Agilent RapidFire control software (v4.0.12333.14070) using the Convert MS Data option. Once the individual injection-event MS-data files have been produced, they are all batch processed using the DA Reprocessor Offline Utilities (B.05.00, Build 162, Agilent). For batch processing a method file was created using Agilent MassHunter Qualitative Analysis B.05.00. The details of this method file are contained within the BioConfirm Workflow and are as follows: Integrate (MS), Integrator Selection: General, smooth option selected; detector point sampling 1; start threshold 5.0; stop threshold 0.0; filtering 5 point; peak location, top. Extract (MS): Peak Spectrum Extraction (MS) within m/z 800-1400. Deconvolute (MS) Maximum Entropy: mass range 19,000-21,000 Daltons; Mass step 1.0 Da; S/N threshold 20.0; Use limited m/z range 800-1400; adduct proton; isotope peak width automatic; minimum consecutive charge states 5. […]

[2] = target: GDP-bound KRAS protein (aa 1-169) G12C/C118A (Homo sapiens (Human), UniProt P01116, C118A/G12C); experiment: Coupled Nucleotide Exchange Assay (KRAS G12C); format: biochemical
GDP-bound KRAS protein (aa 1-169) G12C/C118A, sequence (P01116 other isoform, or with tags, fused parts or gaps G12C/C118A): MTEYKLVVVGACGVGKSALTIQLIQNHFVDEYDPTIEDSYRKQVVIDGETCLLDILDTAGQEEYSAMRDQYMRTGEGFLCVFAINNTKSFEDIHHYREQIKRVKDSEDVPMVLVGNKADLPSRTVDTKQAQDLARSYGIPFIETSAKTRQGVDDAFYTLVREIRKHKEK
Description: as §1

[3] = 5 min compound pre-incubation, read-out: GDP KRAS G12C 5 min Coupled Exchange IC50 IP
[4] = 20 h compound pre-incubation, read-out: GDP KRAS G12C 20 h Coupled Exchange IC50 IP

GDP-bound KRAS protein (aa 1-169) G12D/C118A, sequence (P01116 other isoform, or with tags, fused parts or gaps G12D/C118A): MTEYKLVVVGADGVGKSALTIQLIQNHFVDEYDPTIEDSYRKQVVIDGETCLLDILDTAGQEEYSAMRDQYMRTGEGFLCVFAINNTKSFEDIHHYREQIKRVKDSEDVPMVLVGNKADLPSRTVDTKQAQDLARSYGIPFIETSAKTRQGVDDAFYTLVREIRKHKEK

Row | IC50 [1] [µM] | GDP-KRAS G12D RF-MS 100 μM 20 h Relative % Bound (GDP-KRAS G12D) [%] | IC50 [2, 3] [µM] | IC50 [2, 4] [µM] | SMILES
1 | > 250 | 2 | 60.9 | 0.261 | Cc1ccnc(C(C)C)c1-n1c(=O)nc(N2CCCC3C2CN3C(=O)C2CO2)c2cc(Cl)c(-c3ccccc3F)nc21 (stereo not drawn) [Example 33, 6-Chloro-7-(2-fluorophenyl)-1-(2-isopropyl-4-methylpyridin-3-yl)-4-(7-(oxirane-2-carbonyl)-2,7-diazabicyclo[4.2.0]octan-2-yl)pyrido[2,3-d]pyrimidin-2(1H)-one]
2 | > 250 | 2.9 | > 250 | > 250 | Cc1ccnc(C(C)C)c1-n1c(=O)nc(N2CCC[C@H](NC(=O)C3CO3)C2)c2cc(Cl)c(-c3ccccc3F)nc21 (stereo partly drawn) [Example 34, N—((S)-1-(6-Chloro-7-(2-fluorophenyl)-1-(2-isopropyl-4-methylpyridin-3-yl)-2-oxo-1,2-dihydropyrido[2,3-d]pyrimidin-4-yl)piperidin-3-yl)oxirane-2-carboxamide]
3 | > 250 | 3.4 | 167 | 1.36 | Cc1ccnc(C(C)C)c1-n1c(=O)nc(N2CC[C@H](NC(=O)C3CO3)C2)c2cc(Cl)c(-c3ccccc3F)nc21 (stereo partly drawn) [Example 35, N—((S)-1-(6-chloro-7-(2-fluorophenyl)-1-(2-isopropyl-4-methylpyridin-3-yl)-2-oxo-1,2-dihydropyrido[2,3-d]pyrimidin-4-yl)pyrrolidin-3-yl)oxirane-2-carboxamide]
4 | > 250 | 15.8 | 0.56 | 0.015 | Cc1ccnc(C(C)C)c1-n1c(=O)nc(N2C[C@@H](C)N(C(=O)[C@H]3CO3)C[C@@H]2C)c2cc(Cl)c(-c3c(N)cccc3F)nc21 [Example 37, 7-(2-Amino-6-fluorophenyl)-6-chloro-4-((2S,5R)-2,5-dimethyl-4-((R)-oxirane-2-carbonyl)piperazin-1-yl)-1-(2-isopropyl-4-methylpyridin-3-yl)pyrido[2,3-d]pyrimidin-2(1H)-one]

Continued, compound first:

Row | SMILES | IC50 [1] [µM] | GDP-KRAS G12D RF-MS 100 μM 20 h Relative % Bound (GDP-KRAS G12D) [%] | IC50 [2, 3] [µM] | IC50 [2, 4] [µM]
5 | Cc1ccnc(C(C)C)c1-n1c(=O)nc(N2CCN(C(=O)[C@H]3CO3)C[C@@H]2C)c2cc(Cl)c(-c3ccccc3F)nc21 (atropisomer, axis not shown) [Example 16, 6-Chloro-7-(2-fluorophenyl)-1-(2-isopropyl-4-methylpyridin-3-yl)-4-((S)-2-methyl-4-((R)-oxirane-2-carbonyl)piperazin-1-yl)pyrido[2,3-d]pyrimidin-2(1H)-one] | 190 | 3.4 | 3.78 | 0.027
6 | Cc1ccnc(C(C)C)c1-n1c(=O)nc(N2CCC3C2CN3C(=O)C2CO2)c2cc(Cl)c(-c3ccccc3F)nc21 (stereo not drawn) [Example 28, 6-Chloro-7-(2-fluorophenyl)-1-(2-isopropyl-4-methylpyridin-3-yl)-4-(6-(oxirane-2-carbonyl)-2,6-diazabicyclo[3.2.0]heptan-2-yl)pyrido[2,3-d]pyrimidin-2(1H)-one] | > 250 |  | 193 | 0.647
7 | Cc1ccnc(C(C)C)c1-n1c(=O)nc(N(C)C2CN(C(=O)C3CO3)C2)c2cc(Cl)c(-c3ccccc3F)nc21 (stereo not drawn) [Example 29] | > 250 |  | 13.8 | 0.227
8 | Cc1ccnc(C(C)C)c1-n1c(=O)nc(N(C)C2CN(C(=O)[C@H]3CO3)C2)c2cc(Cl)c(-c3ccccc3F)nc21 [Example 30, (R)-6-chloro-7-(2-fluorophenyl)-1-(2-isopropyl-4-methylpyridin-3-yl)-4-(methyl(1-(oxirane-2-carbonyl)azetidin-3-yl)amino)pyrido[2,3-d]pyrimidin-2(1H)-one] | > 250 | 1.4 | > 250 | > 31.3
9 | Cc1ccnc(C(C)C)c1-n1c(=O)nc(NC2CN(C(=O)C3CO3)C2)c2cc(Cl)c(-c3ccccc3F)nc21 (stereo not drawn) [Example 31, 6-Chloro-7-(2-fluorophenyl)-1-(2-isopropyl-4-methylpyridin-3-yl)-4-((1-(oxirane-2-carbonyl)azetidin-3-yl)amino)pyrido[2,3-d]pyrimidin-2(1H)-one] | > 250 | 2.2 | 146 | 1.57
10 | Cc1ccnc(C(C)C)c1-n1c(=O)nc(N[C@@H]2CCN(C(=O)C3CO3)C2)c2cc(Cl)c(-c3ccccc3F)nc21 (stereo partly drawn) [Example 32, 6-Chloro-7-(2-fluorophenyl)-1-(2-isopropyl-4-methylpyridin-3-yl)-4-(((3R)-1-(oxirane-2-carbonyl)pyrrolidin-3-yl)amino)pyrido[2,3-d]pyrimidin-2(1H)-one] | > 250 | 3.1 | 101 | 1.85
11 | Cc1ccnc(C(C)C)c1-n1c(=O)nc(N2C[C@@H](C)N(C(=O)[C@H]3CO3)C[C@@H]2C)c2cc(Cl)c(-c3c(O)cccc3F)nc21 [Example 36, 6-Chloro-4-((2S,5R)-2,5-dimethyl-4-((R)-oxirane-2-carbonyl)piperazin-1-yl)-7-(2-fluoro-6-hydroxyphenyl)-1-(2-isopropyl-4-methylpyridin-3-yl)pyrido[2,3-d]pyrimidin-2(1H)-one] | > 250 | 8.1 | 0.653 | 0.024
